The source made the active and inactive calls. The calls are words filed in the database; no cut-off is given here.
Experiments:
Rattus norvegicus [1] = assay: Neuroprotective activity against ischemia reperfusion injury in Wistar rat assessed as thrombin-antithrombin complex at 2 mg/kg, iv by enzyme immunoassay (RVb = 3.45 +/- 0.57 ug/L); assay type: functional
Rattus norvegicus [2] = assay: Neuroprotective activity against ischemia reperfusion injury in Wistar rat assessed as factor 7 level at 4 mg/kg, iv by amidolytic method (RVb = 1.24 +/- 0.34 mg/L); assay type: functional
Rattus norvegicus [3] = assay: Neuroprotective activity against ischemia reperfusion injury in Wistar rat assessed as thrombin-antithrombin complex at 8 mg/kg, iv by enzyme immunoassay (RVb = 3.45 +/- 0.57 ug/L); assay type: functional
Rattus norvegicus [4] = assay: Neuroprotective activity against ischemia reperfusion injury in Wistar rat hippocampal formation assessed as reduction in prothrombin mRNA level at 2 to 8 mg/kg, iv; assay type: functional, organism-based; settings: Hippocampus
Rattus norvegicus [5] = assay: Neuroprotective activity in Wistar rat assessed as ischemia reperfusion injury-induced plasma angiotensin level at 2 to 8 mg/kg, iv by radioimmunoassay; assay type: functional, organism-based
Rattus norvegicus [6] = assay: Neuroprotective activity against ischemia reperfusion injury in Wistar rat assessed as fibrinogen level at 4 mg/kg, iv by polymerization time method (RVb = 1.45 +/- 0.35 g/L); assay type: functional
Rattus norvegicus [7] = assay: Antiinflammatory activity in Wistar rat hippocampus assessed as reduction in ischemia reperfusion injury-induced IkappaB alpha protein expression at 2 to 8 mg/kg, iv by Western blotting; assay type: functional, organism-based
Rattus norvegicus [8] = assay: Neuroprotective activity against ischemia reperfusion injury in Wistar rat assessed as fibrinogen level at 2 mg/kg, iv by polymerization time method (RVb = 1.45 +/- 0.35 g/L); assay type: functional
Rattus norvegicus [9] = assay: Neuroprotective activity against ischemia reperfusion injury in Wistar rat assessed as thrombin-antithrombin complex at 4 mg/kg, iv by enzyme immunoassay (RVb = 3.45 +/- 0.57 ug/L); assay type: functional
Rattus norvegicus [10] = assay: Neuroprotective activity against ischemia reperfusion injury in Wistar rat assessed as factor 7 level at 2 mg/kg, iv by amidolytic method (RVb = 1.24 +/- 0.34 mg/L); assay type: functional
Rattus norvegicus [11] = assay: Antiinflammatory activity in Wistar rat brain assessed as reduction in ischemia reperfusion injury-induced MPO activity at 2 to 8 mg/kg, iv; assay type: functional, organism-based
Rattus norvegicus [12] = assay: Antiinflammatory activity in Wistar rat assessed as reduction in ischemia reperfusion injury-induced ICAM1 mRNA expression at 2 to 8 mg/kg, iv by RT-PCR; assay type: functional, organism-based
Rattus norvegicus [13] = assay: Antiinflammatory activity in Wistar rat brain assessed as inhibition of ischemia reperfusion injury-induced p65 subunit binding to DNA at 2 to 8 mg/kg, iv by EMSA; assay type: functional, organism-based
Rattus norvegicus [14] = assay: Neuroprotective activity against ischemia reperfusion injury in Wistar rat assessed as fibrinogen level at 8 mg/kg, iv by polymerization time method (RVb = 1.45 +/- 0.35 g/L); assay type: functional
Rattus norvegicus [15] = assay: Neuroprotective activity against ischemia reperfusion injury in Wistar rat assessed as […] 1+2 at 4 mg/kg, iv by enzyme immunoassay (RVb = 1.97 +/- 0.44 ug/L); assay type: functional
Rattus norvegicus [16] = assay: Neuroprotective activity against ischemia reperfusion injury in Wistar rat assessed as […] 1+2 at 2 mg/kg, iv by enzyme immunoassay (RVb = 1.97 +/- 0.44 ug/L); assay type: functional
Rattus norvegicus [17] = assay: Antiinflammatory activity in Wistar rat assessed as reduction in ischemia reperfusion injury-induced ICAM1 protein expression at 2 to 8 mg/kg, iv by Western blotting; assay type: functional, organism-based
Rattus norvegicus [18] = assay: Antiinflammatory activity in Wistar rat brain assessed as inhibition of ischemia reperfusion injury-induced NF-kappaB nuclear translocation at 2 to 8 mg/kg, iv; assay type: functional, organism-based
Rattus norvegicus [19] = assay: Neuroprotective activity against ischemia reperfusion injury in Wistar rat assessed as […] 1+2 at 8 mg/kg, iv by enzyme immunoassay (RVb = 1.97 +/- 0.44 ug/L); assay type: functional
Rattus norvegicus [20] = assay: Neuroprotective activity against ischemia reperfusion injury in Wistar rat assessed as factor 7 level at 8 mg/kg, iv by amidolytic method (RVb = 1.24 +/- 0.34 mg/L); assay type: functional

Compound: O=C(/C=C/c1ccc(O)cc1)C1=C(O)C(O)([C@@H]2O[C@H](CO)[C@@H](O)[C@H](O)[C@H]2O)C(O)=C([C@@H]2O[C@H](CO)[C@@H](O)[C@H](O)[C@H]2O)C1=O (stereo not given in full) [HYDROXYSAFFLOR YELLOW A]
- Activity (Rattus norvegicus [1]): 2.39 µg/L
- Activity (Rattus norvegicus [2]): 1.19 mg/L
- Activity (Rattus norvegicus [3]): 1.48 µg/L
- Activity (Rattus norvegicus [4]): Active
- Activity (Rattus norvegicus [5]): Active
- Activity (Rattus norvegicus [6]): 1.9 g/L
- Activity (Rattus norvegicus [7]): Active
- Activity (Rattus norvegicus [8]): 2.06 g/L
- Activity (Rattus norvegicus [9]): 1.89 µg/L
- Activity (Rattus norvegicus [10]): 1.21 mg/L
- Activity (Rattus norvegicus [11]): Active
- Activity (Rattus norvegicus [12]): Active
- Activity (Rattus norvegicus [13]): Active
- Activity (Rattus norvegicus [14]): 1.55 g/L
- Activity (Rattus norvegicus [15]): 0.8 µg/L
- Activity (Rattus norvegicus [16]): 1.38 µg/L
- Activity (Rattus norvegicus [17]): Active
- Activity (Rattus norvegicus [18]): Active
- Activity (Rattus norvegicus [19]): 0.54 µg/L
- Activity (Rattus norvegicus [20]): 1.01 mg/L
